Like-named read-outs stand apart in the source and are kept apart here. Bounds are passed on as bounds.

The test system of data set [1] is Myzus persicae (Green Peach Aphid). The data set can be described thus: whole plant or invertebrate. The format is in vivo. The conditions noted are these: foliar, 144 h, application rate 200 ppm, sprayed sunflower leaf discs, mixed ages, 6 days after infestation. The procedure:
Example B4: Activity Against Myzus persicae (Green Peach Aphid) Feeding/Contact Activity
Sunflower leaf discs were placed onto agar in a 24-well microtiter plate and sprayed with aqueous test solutions prepared from 10′000 ppm DMSO stock solutions. After drying, the leaf discs were infested with an aphid population of mixed ages. The samples were assessed for mortality 6 days after infestation.

The subject of data set [2] is Bemisia tabaci (Cotton White Fly). Put plainly: Example B7: Activity against Bemisia tabaci (cotton white fly). The format is in vivo. The conditions noted are these: foliar, 144 h, application rate 200 ppm, adult white flies on sprayed cotton leaf discs, 6 days after incubation. The procedure:
Example B7: Activity Against Bemisia tabaci (Cotton White Fly)
Cotton leaf discs were placed on agar in 24-well microtiter plates and sprayed with aqueous test solutions prepared from 10′000 ppm DMSO stock solutions. After drying the leaf discs were infested with adult white flies. The samples were checked for mortality 6 days after incubation.

The subject of data set [3] is Diabrotica balteata (Corn Root Worm). The data set can be described thus: Example B1: Activity against Diabrotica balteata (corn root worm), sprayed maize sprouts. The format is in vivo. Conditions: 96 h, application rate 200 ppm, L2 larvae on sprayed maize sprouts, 4 days after infestation, read-out: effect in at least one of the two categories (mortality or growth inhibition). As for the experimental part: Example B1: Activity Against Diabrotica balteata (Corn Root Worm)
Maize sprouts placed onto an agar layer in 24-well microtiter plates were treated with aqueous test solutions prepared from 10′000 ppm DMSO stock solutions by spraying. After drying, the plates were infested with L2 larvae (6 to 10 per well). The samples were assessed for mortality and growth inhibition in comparison to untreated samples 4 days after infestation.

For data set [4], the system named is Spodoptera littoralis (Egyptian Cotton Leaf Worm). The data set can be described thus: Example B6: Activity against Spodoptera littoralis (Egyptian cotton leaf worm). The format is in vivo. Conditions: foliar, 72 h, application rate 200 ppm, L1 larvae on sprayed cotton leaf discs, 3 days after infestation, read-out: control (mortality, anti-feeding effect or growth inhibition). The essentials: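 Cotton leaf discs on agar were sprayed with aqueous test solutions prepared from 10'000 ppm DMSO stocks. After drying, each disc was infested with five L1 larvae. Mortality, anti-feeding and growth inhibition were scored against untreated samples 3 days after infestation.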

Data set [5] has as its system Plutella xylostella (Diamond Back Moth). The data set can be described thus: Example B3: Activity against Plutella xylostella (diamond back moth), artificial diet. The format is in vivo. Conditions: 192 h, application rate 200 ppm, eggs on artificial diet, 8 days after infestation, read-out: effect in at least one of the two categories (mortality or growth inhibition).

For data set [6], the system named is Frankliniella occidentalis (Western Flower Thrips). Put plainly: Example B8: Activity against Frankliniella occidentalis (western flower thrips). The format is in vivo. The conditions noted are these: foliar, 168 h, application rate 200 ppm, sprayed sunflower leaf discs, mixed ages, 7 days after infestation. As for the experimental part: Example B8: Activity Against Frankliniella occidentalis (Western Flower Thrips)
Sunflower leaf discs were placed on agar in 24-well microtiter plates and sprayed with aqueous test solutions prepared from […] stock solutions. After drying the leaf discs were infested with a Frankliniella population of mixed ages. The samples were assessed for mortality 7 days after infestation.

In data set [7] the test system is Euschistus heros (Neotropical Brown Stink Bug). Put plainly: Example B2: Activity against Euschistus heros (neotropical brown stink bug), sprayed soybean leaves. The format is in vivo. The conditions noted are these: 120 h, application rate 200 ppm, N2 nymphs on sprayed soybean leaves, 5 days after infestation, read-out: effect in at least one of the two categories (mortality or growth inhibition). As for the experimental part:
Example B2: Activity Against Euschistus heros (Neotropical Brown Stink Bug)
Soybean leaves on agar in 24-well microtiter plates were sprayed with aqueous test solutions prepared from 10′000 ppm DMSO stock solutions. After drying the leaves were infested with N2 nymphs. The samples were assessed for mortality and growth inhibition in comparison to untreated samples 5 days after infestation.

The subject of data set [8] is Tetranychus urticae (Two-Spotted Spider Mite). Put plainly: Example B9: Activity against Tetranychus urticae (two-spotted spider mite). The format is in vivo. Conditions: foliar, 192 h, read-out: mortality on mixed population (mobile stages). As for the experimental part:
Example B9: Activity Against Tetranychus urticae (Two-Spotted Spider Mite)
Bean leaf discs on agar in 24-well microtiter plates were sprayed with aqueous test solutions prepared from 10′000 ppm DMSO stock solutions. After drying the leaf discs were infested with a mite population of mixed ages. The samples were assessed for mortality on mixed population (mobile stages) 8 days after infestation.

The test system of data set [9] is Myzus persicae (Green Peach Aphid). Put plainly: Example B5: Activity against Myzus persicae (green peach aphid), systemic activity. The format is in vivo. The conditions noted are these: 144 h, test rate 24 ppm, roots of pea seedlings in test solution, mixed ages, 6 days. The procedure: Example B5: Activity Against Myzus persicae (Green Peach Aphid) Systemic Activity
Roots of pea seedlings infested with an aphid population of mixed ages were placed directly into aqueous test solutions prepared from 10′000 DMSO stock solutions. The samples were assessed for mortality 6 days after placing seedlings into test solutions.

Broadly, the melting point is the temperature of the solid-liquid transition. In turn, `CCS(=O)(=O)c1ccc(N(C)C(=O)NC)nc1-c1cc2ccn(CC(F)(F)C(F)(F)F)c2cn1` [Compound P13, 1-[5-ethylsulfonyl-6-[1-(2,2,3,3,3-pentafluoropropyl)pyrrolo[2,3-c]pyridin-5-yl]-2-pyridyl]-1,3-dimethyl-urea] came in with a melting point of 214 to 217 °C.

A word on the mortality: it is the percentage killed. Regarding `CCSc1cc(C(C)(C)C#N)cnc1-c1cc2cnn(CC(F)(F)C(F)(F)F)c2cn1` [Compound P6, 2-[5-ethylsulfanyl-6-[1-(2,2,3,3,3-pentafluoropropyl)pyrazolo[3,4-c]pyridin-5-yl]-3-pyridyl]-2-methyl-propanenitrile], the mortality at 200 ppm in [1], in [2] and in [6] was no less than 80% each time. Besides, the percent effect (mortality or growth inhibition) at 200 ppm in data set [3], in data set [5] and in [7] was no less than 80% in each case. Besides, the percent control (mortality, anti-feedant effect or growth inhibition) at 200 ppm in data set [4] was no less than 80%.

`CCSc1cc(C(C)(C)C#N)c[n+]([O-])c1-c1cc2ccn(CC(F)(F)C(F)(F)F)c2cn1` [PN6, 2-[5-ethylsulfanyl-1-oxido-6-[1-(2,2,3,3,3-pentafluoropropyl)pyrrolo[2,3-c]pyridin-5-yl]pyridin-1-ium-3-yl]-2-methyl-propanenitrile]: the mortality at 200 ppm in data set [8] (application rate 200 ppm, sprayed bean leaf discs, 8 days after infestation) is no less than 80%.

In turn, `CCSc1ccc[n+]([O-])c1-c1cc2ccn(CC(F)(F)C(F)(F)F)c2cn1` [PN2, 5-(3-ethylsulfanyl-1-oxido-pyridin-1-ium-2-yl)-1-(2,2,3,3,3-pentafluoropropyl) pyrrolo[2,3-c]pyridine] had a melting point of 181 to 185 °C.

For the compound `CCS(=O)(=O)c1cc(C2(C#N)CC2)cnc1-c1cc2cnn(CC(F)(F)C(F)(F)F)c2cn1` [Compound P11, 1-[5-ethylsulfonyl-6-[1-(2,2,3,3,3-pentafluoropropyl)pyrazolo[3,4-c]pyridin-5-yl]-3-pyridyl]cyclopropanecarbonitrile], the mortality at 200 ppm in data set [1], in data set [2] and in data set [6] was no less than 80% throughout. The percent effect (mortality or growth inhibition) at 200 ppm in [3], in data set [5] and in data set [7] was no less than 80% throughout. For the same compound, the percent control (mortality, anti-feedant effect or growth inhibition) at 200 ppm in data set [4] was no less than 80%.

Compound `CCSc1ccc(Cl)nc1-c1cc2ccn(CC(F)(F)C(F)(F)F)c2cn1` [Compound P48, 5-(6-chloro-3-ethylsulfanyl-2-pyridyl)-1-(2,2,3,3,3-pentafluoropropyl) pyrrolo[2,3-c]pyridine] gave a melting point of 185 to 188 °C.

`CCS(=O)(=O)c1ccc(C2CC2)nc1-c1cc2cnn(CC(F)(F)C(F)(F)F)c2cn1` [Compound P26, 5-(6-cyclopropyl-3-ethylsulfonyl-2-pyridyl)-1-(2,2,3,3,3,- pentafluoropropyl) pyrazolo[3,4-c]pyridine]: the mortality at 200 ppm in [1], in [6] and in data set [8] was no less than 80% in each case. In addition, the percent effect (mortality or growth inhibition) at 200 ppm in data set [3], in [5] and in data set [7] was no less than 80% in each case. Moreover, the percent control (mortality, anti-feedant effect or growth inhibition) at 200 ppm in [4] was no less than 80%.

On to `CCS(=O)(=O)c1cc(C(C)(C)C#N)cnc1-c1cc2cnn(CC(F)(F)C(F)(F)F)c2cn1` [Compound P5, 2-[5-ethylsulfonyl-6-[1-(2,2,3,3,3-pentafluoropropyl)pyrazolo[3,4-c]pyridin-5-yl]-3-pyridyl]-2-methyl-propanenitrile], for which the mortality at 200 ppm in [1] and in [2] was no less than 80% throughout. Besides, the percent effect (mortality or growth inhibition) at 200 ppm in [3], in data set [5] and in [7] was no less than 80% in each case. Further, the percent control (mortality, anti-feedant effect or growth inhibition) at 200 ppm in [4] is no less than 80%. For the same compound, the mortality at 24 ppm in data set [9] is no less than 80%.

Values taken from US20220132852A1, “PESTICIDALLY ACTIVE HETEROCYCLIC DERIVATIVES WITH SULFUR CONTAINING SUBSTITUENTS” (SYNGENTA CROP PROTECTION AG, priority 2019, published 2022).
